Experimental data reported in paper PMC12645083, “Microwave‐Enhanced Synthesis of 2‐Styrylquinoline‐4‐Carboxamides With Promising Anti‐Lymphoma Activity” (Archiv Der Pharmazie, 2025).

Assays:
Test in all cases: In vitro antiproliferative activity, resazurin cell viability
Assay type in all cases: cell-based
[1] = system: MDA-MB-231; details: Homo sapiens, triple-negative breast cancer, 72 h of treatment, mean ± SEM
Procedure: (§1) To test the newly synthesized compounds, various human cell lines were employed. HD‐MB03 cells were purchased from DSMZ (Braunschweig, Germany), while A549, MDA‐MB‐231, RPMI‐8420, SU‐DHL‐8, TOLEDO, VL51, SU‐DHL‐1, SU‐DHL‐18, and KM‐H2 were obtained from ATCC (Manassas, VA, USA). Cells were cultured in DMEM (for MDA‐MB‐231 and A549) or RPMI‐1640 (for RPMI‐8420, SU‐DHL‐8, TOLEDO, VL51, SU‐DHL‐1, SU‐DHL‐18, KM‐H2, and HD‐MB03) media (Gibco, Milan, Italy). Both media were supplemented with 115 units/mL penicillin G (Gibco, Milan, Italy), 115 µg/mL streptomycin (Invitrogen, Milan, Italy), and 10% fetal bovine serum (Invitrogen, Milan, Italy). Peripheral blood mononuclear cells (PBMCs) were isolated from healthy donors as previously described. For cytotoxicity assays, PBMCs were resuspended at 5 × 10⁵ cells/mL in complete RPMI medium with or without 2.5 µg/mL phytohemagglutinin (PHA) (Irvine Scientific) to stimulate T‐cell activation and proliferation. All cell lines were maintained at 37°C in a humidified atmosphere containing 5% CO₂. All compounds were dissolved in DMSO at a 10 mM stock concentration. For dose–response assays, cells were seeded in 96‐well plates at densities optimized for each cell line: HD‐MB03 at 10,000 cells/well, A549 at 4000 cells/well, and MDA‐MB‐231 at 7000 cells/well. All other cell lines were seeded at 20,000 cells/well in a final volume of 100 µL per well. After 24 h, cells were treated with a 6‐point serial dilution of compounds starting from 10 µM, in triplicate for statistical analysis. Seventy‐2 h posttreatment, 10 µL of resazurin solution (100 µg/mL) was added to each well, and cells were incubated for an additional 3–6 h. Fluorescence was measured using a Spark 10 M microplate reader (Tecan Group Ltd., Männedorf, Switzerland) with excitation at 535 nm and emission at 600 nm. The IC₅₀ was defined as the concentration of compound required to inhibit cell proliferation by 50% compared to cells treated with the highest DMSO concentration.
(§2) To test the newly synthesized compounds, various human cell lines were employed. HD-MB03 cells were purchased from DSMZ (Braunschweig, Germany), while A549, MDA-MB-231, RPMI-8420, SU-DHL-8, TOLEDO, VL51, SU-DHL-1, SU-DHL-18, and KM-H2 were obtained from ATCC (Manassas, VA, USA). Cells were cultured in DMEM (for MDA-MB-231 and A549) or RPMI-1640 (for RPMI-8420, SU-DHL-8, TOLEDO, VL51, SU-DHL-1, SU-DHL-18, KM-H2, and HD-MB03) media (Gibco, Milan, Italy). Both media were supplemented with 115 units/mL penicillin G (Gibco, Milan, Italy), 115 µg/mL streptomycin (Invitrogen, Milan, Italy), and 10% fetal bovine serum (Invitrogen, Milan, Italy). Peripheral blood mononuclear cells (PBMCs) were isolated from healthy donors as previously described. ^[1] For cytotoxicity assays, PBMCs were resuspended at 5 × 10⁵ cells/mL in complete RPMI medium with or without 2.5 µg/mL phytohemagglutinin (PHA) (Irvine Scientific) to stimulate T cell activation and proliferation. All cell lines were maintained at 37 °C in a humidified atmosphere containing 5% CO₂. All compounds were dissolved in DMSO at a 10 mM stock concentration. For dose–response assays, cells were seeded in 96-well plates at densities optimized for each cell line: HD-MB03 at 10,000 cells/well, A549 at 4,000 cells/well, and MDA-MB-231 at 7,000 cells/well. All other cell lines were seeded at 20,000 cells/well in a final volume of 100 µL per well. After 24 hours, cells were treated with a 6-point serial dilution of compounds starting from 10 µM, in triplicate for statistical analysis. Seventy-two hours post-treatment, 10 µL of resazurin solution (100 µg/mL) was added to each well, and cells were incubated for an additional 3–6 hours. Fluorescence was measured using a Spark 10M microplate reader (Tecan Group Ltd., Männedorf, Switzerland) with excitation at 535 nm and emission at 600 nm. […]

[2] = system: SU-DHL-8; details: Homo sapiens, B lymphocyte, large cell lymphoma, 72 h of treatment, mean ± SEM
Procedure: as §1, §2

[3] = system: A549; details: Homo sapiens, non-small cell lung cancer, 72 h of treatment, mean ± SEM
Procedure: as §1, §2

[4] = system: RPMI-8402; details: Homo sapiens, T-lymphoblastic leukemia cells, 72 h of treatment, mean ± SEM
Procedure: as §1, §2

[5] = system: HD-MB03; details: Homo sapiens, medulloblastoma cells, 72 h of treatment, mean ± SEM, at least three experiments
Procedure: as §1, §2

Structure (SMILES) | IC50 [1] | IC50 [2] | IC50 [3] | IC50 [4] | IC50 [5]
O=C(Nc1ccc(C(F)(F)F)cc1)c1cc(/C=C/c2ccccc2[N+](=O)[O-])nc2ccccc12 [4ac, (E)-2-(2-nitrostyryl)-N-(4-(trifluoromethyl)phenyl)quinoline-4-carboxamide] | > 10 µM | > 10 µM | > 10 µM | > 10 µM | > 10 µM
O=C(Nc1ccc(C(F)(F)F)cc1)c1cc(/C=C/c2cccc([N+](=O)[O-])c2)nc2ccccc12 [4ad, (E)-2-(3-nitrostyryl)-N-(4-(trifluoromethyl)phenyl)quinoline-4-carboxamide] | > 10 µM | > 10 µM | > 10 µM | > 10 µM | > 10 µM
COc1ccc(/C=C/c2cc(C(=O)Nc3ccc(Cl)cc3)c3ccccc3n2)cc1 [4ae, (E)-N-(4-chlorophenyl)-2-(4-methoxystyryl)quinoline-4-carboxamide] | > 10 µM | 4.67 ± 0.14 µM | > 10 µM | 6.41 ± 1.16 µM | > 10 µM
O=C(Nc1ccc(Cl)cc1)c1cc(/C=C/c2ccc(Cl)cc2)nc2ccccc12 [4af, (E)-N-(4-chlorophenyl)-2-(4-chlorostyryl)quinoline-4-carboxamide] | > 10 µM | 4.45 ± 0.53 µM | > 10 µM | 4.61 ± 0.24 µM | > 10 µM
Cc1cccc(NC(=O)c2cc(/C=C/c3ccccc3)nc3ccccc23)c1 [4b, (E)-2-styryl-N-(m-tolyl)quinoline-4-carboxamide] | > 10 µM | 5.05 ± 0.58 µM | > 10 µM | > 10 µM | > 10 µM
Cc1ccc(NC(=O)c2cc(/C=C/c3ccccc3)nc3ccccc23)cc1 [4c, (E)-2-styryl-N-(p-tolyl)quinoline-4-carboxamide] | > 10 µM | > 10 µM | > 10 µM | > 10 µM | > 10 µM
COc1cc(NC(=O)c2cc(/C=C/c3ccccc3)nc3ccccc23)cc(OC)c1OC [4e, (E)-2-styryl-N-(3,4,5-trimethoxyphenyl)quinoline-4-carboxamide] | > 10 µM | 6.61 ± 0.76 µM | > 10 µM | > 10 µM | 7.1 ± 1.15 µM
O=C(Nc1cccc(Cl)c1)c1cc(/C=C/c2ccccc2)nc2ccccc12 [4f, (E)-N-(3-chlorophenyl)-2-styrylquinoline-4-carboxamide] | > 10 µM | 8.27 ± 0.72 µM | > 10 µM | > 10 µM | > 10 µM
O=C(Nc1ccc(Cl)cc1)c1cc(/C=C/c2ccccc2)nc2ccccc12 [4g, (E)-N-(4-chlorophenyl)-2-styrylquinoline-4-carboxamide] | > 10 µM | 7.8 ± 1.3 µM | > 10 µM | 6.31 ± 0.36 µM | > 10 µM
COc1cc(/C=C/c2cc(C(=O)Nc3ccccc3)c3ccccc3n2)cc(OC)c1OC [4k, (E)-N-phenyl-2-(3,4,5-trimethoxystyryl)quinoline-4-carboxamide] | > 10 µM | 5.33 ± 0.52 µM | > 10 µM | > 10 µM | > 10 µM
COc1cc(/C=C/c2cc(C(=O)Nc3ccc(C)cc3)c3ccccc3n2)cc(OC)c1OC [4m, (E)-N-(p-tolyl)-2-(3,4,5-trimethoxystyryl)quinoline-4-carboxamide] | > 10 µM | > 10 µM | > 10 µM | > 10 µM | > 10 µM
COc1cc(/C=C/c2cc(C(=O)Nc3ccc(Cl)cc3)c3ccccc3n2)cc(OC)c1OC [4q, (E)-N-(4-chlorophenyl)-2-(3,4,5-trimethoxystyryl)quinoline-4-carboxamide] | > 10 µM | 4.61 ± 0.84 µM | > 10 µM | > 10 µM | > 10 µM
COc1cc(/C=C/c2cc(C(=O)Nc3ccc(C(F)(F)F)cc3)c3ccccc3n2)cc(OC)c1OC [4r, (E)-N-(4-(trifluoromethyl)phenyl)-2-(3,4,5-trimethoxystyryl)quinoline-4-carboxamide] | > 10 µM | 2.13 ± 0.08 µM | > 10 µM | > 10 µM | > 10 µM
COc1cc(/C=C/c2cc(C(=O)Nc3ccc([N+](=O)[O-])c(C(F)(F)F)c3)c3ccccc3n2)cc(OC)c1OC [4t, (E)-N-(4-nitro-3-(trifluoromethyl)phenyl)-2-(3,4,5-trimethoxystyryl)quinoline-4-carboxamide] | > 10 µM | > 10 µM | > 10 µM | > 10 µM | > 10 µM

Continued, in another order:

IC50 [1] | IC50 [2] | IC50 [3] | Structure (SMILES) | IC50 [4] | IC50 [5]
> 10 µM | > 10 µM | > 10 µM | O=C(Nc1ccccc1)c1cc(/C=C/c2ccccc2)nc2ccccc12 [4a, (E)-N-phenyl-2-styrylquinoline-4-carboxamide] | > 10 µM | > 10 µM
> 10 µM | > 10 µM | > 10 µM | O=C(Nc1ccc(C(F)(F)F)cc1)c1cc(/C=C/c2ccc(Br)cc2)nc2ccccc12 [4aa, (E)-2-(4-bromostyryl)-N-(4-(trifluoromethyl)phenyl)quinoline-4-carboxamide] | > 10 µM | > 10 µM
5.52 ± 0.22 µM | 3.49 ± 0.11 µM | 7.71 ± 0.56 µM | O=C(Nc1ccc(Cl)cc1)c1cc(/C=C/c2ccc(Cl)c(Cl)c2)nc2ccccc12 [4ag, (E)-N-(4-chlorophenyl)-2-(3,4-dichlorostyryl)quinoline-4-carboxamide] | 6.42 ± 0.43 µM | 6.93 ± 0.06 µM
5.6 ± 0.79 µM | 6.53 ± 1.49 µM | > 10 µM | Cc1cccc(C)c1NC(=O)c1cc(/C=C/c2ccccc2)nc2ccccc12 [4d, (E)-N-(2,6-dimethylphenyl)-2-styrylquinoline-4-carboxamide] | > 10 µM | > 10 µM
5.95 ± 0.66 µM | 2.94 ± 0.08 µM | 9.34 ± 0.18 µM | COc1cc(/C=C/c2cc(C(=O)Nc3cccc(C)c3)c3ccccc3n2)cc(OC)c1OC [4l, (E)-N-(m-tolyl)-2-(3,4,5-trimethoxystyryl)quinoline-4-carboxamide] | 3.75 ± 0.18 µM | > 10 µM
5.95 ± 0.89 µM | 2.09 ± 0.14 µM | > 10 µM | COc1cc(/C=C/c2cc(C(=O)Nc3cc(OC)c(OC)c(OC)c3)c3ccccc3n2)cc(OC)c1OC [4o, (E)-N-(3,4,5-trimethoxyphenyl)-2-(3,4,5-trimethoxystyryl)quinoline-4-carboxamide] | 4.55 ± 0.42 µM | > 10 µM
5.7 ± 0.1 µM | 4.46 ± 0.37 µM | > 10 µM | COc1cc(/C=C/c2cc(C(=O)Nc3cccc(Cl)c3)c3ccccc3n2)cc(OC)c1OC [4p, (E)-N-(3-chlorophenyl)-2-(3,4,5-trimethoxystyryl)quinoline-4-carboxamide] | 9.06 ± 0.59 µM | 8.31 ± 0.64 µM
